PMC8449129, “Single tracer-based protocol for broad-spectrum kinase profiling in live cells with NanoBRET” (STAR Protocols, 2021)

Key:
AURKC = molecular target: T1, AURKC (Homo sapiens, UniProt Q9UQB9); test: NanoBRET target engagement, Tracer K10 displacement in live HEK293 cells; format: cell-based; settings: […] h, […] C, n = […]
T1 construct: full-length kinase, C-terminal NanoLuc fusion, transfected HEK293 cells

EPHA4 = molecular target: T2, EPHA4 (Homo sapiens, UniProt P54764); test: as above; format: cell-based; settings: […] h, […] C, n = […]
T2 construct: full-length kinase, C-terminal NanoLuc fusion, transfected HEK293 cells
From the text: NanoBRET target engagement, Tracer K10 displacement in live HEK293 cells on EPHA4

EPHA6 = molecular target: T3, EPHA6 (Homo sapiens, UniProt Q9UF33); test: as above; format: cell-based; settings: […] h, […] C, n = […]
T3 construct: full-length kinase, C-terminal NanoLuc fusion, transfected HEK293 cells
From the text: NanoBRET target engagement, Tracer K10 displacement in live HEK293 cells on EPHA6

NTRK2 = molecular target: T4, NTRK2 (Homo sapiens, UniProt Q16620); test: as above; format: cell-based; settings: […] h, […] C, n = […]
T4 construct: full-length kinase, C-terminal NanoLuc fusion, transfected HEK293 cells
From the text: NanoBRET target engagement, Tracer K10 displacement in live HEK293 cells on NTRK2

EPHA7 = molecular target: T5, EPHA7 (Homo sapiens, UniProt Q15375); test: as above; format: cell-based; settings: […] h, […] C, n = […]
T5 construct: full-length kinase, C-terminal NanoLuc fusion, transfected HEK293 cells
From the text: NanoBRET target engagement, Tracer K10 displacement in live HEK293 cells on EPHA7

CDK17 = CDK17 (Homo sapiens, UniProt Q00537); test: cell-based; design: NanoBRET live-cell target engagement; % occupancy from displacement of tracer K10 on NanoLuc-kinase fusions, mean n=3; settings: HEK293, read-out: % inhibition
In short: (§1)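 Live-cell NanoBRET target engagement: cells expressing kinase–NanoLuc fusion with tracer treated with compound 2 h at 37 °C, 5% CO2. BRET read from donor (450 nm) and acceptor (610/630 nm) emission with 20 μM extracellular NanoLuc inhibitor; % occupancy calculated relative to tracer+DMSO and zero-BRET controls.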

HIPK2 = HIPK2 (Homo sapiens, UniProt Q9H2X6); test: cell-based; design: NanoBRET live-cell target engagement; % occupancy from displacement of tracer K10 on NanoLuc-kinase fusions, mean n=3; settings: HEK293, read-out: % inhibition
In short: as §1

HIPK3 = HIPK3 (Homo sapiens, UniProt Q9H422); test: cell-based; design: NanoBRET live-cell target engagement; % occupancy from displacement of tracer K10 on NanoLuc-kinase fusions, mean n=3; settings: HEK293, read-out: % inhibition
In short: as §1

IKBKE = IKBKE (Homo sapiens, UniProt Q14164); test: cell-based; design: NanoBRET live-cell target engagement; % occupancy from displacement of tracer K10 on NanoLuc-kinase fusions, mean n=3; settings: HEK293, read-out: % inhibition
In short: as §1

IRAK4 = IRAK4 (Homo sapiens, UniProt Q9NWZ3); test: cell-based; design: NanoBRET live-cell target engagement; % occupancy from displacement of tracer K10 on NanoLuc-kinase fusions, mean n=3; settings: HEK293, read-out: % inhibition
In short: as §1

MAPK4 = MAPK4 (Homo sapiens, UniProt P31152); test: cell-based; design: NanoBRET live-cell target engagement; % occupancy from displacement of tracer K10 on NanoLuc-kinase fusions, mean n=3; settings: HEK293, read-out: % inhibition
In short: as §1

MYLK3 = MYLK3 (Homo sapiens, UniProt Q32MK0); test: cell-based; design: NanoBRET live-cell target engagement; % occupancy from displacement of tracer K10 on NanoLuc-kinase fusions, mean n=3; settings: HEK293, read-out: % inhibition
In short: as §1

NEK4 = NEK4 (Homo sapiens, UniProt P51957); test: cell-based; design: NanoBRET live-cell target engagement; % occupancy from displacement of tracer K10 on NanoLuc-kinase fusions, mean n=3; settings: HEK293, read-out: % inhibition
In short: as §1

NEK9 = NEK9 (Homo sapiens, UniProt Q8TD19); test: cell-based; design: NanoBRET live-cell target engagement; % occupancy from displacement of tracer K10 on NanoLuc-kinase fusions, mean n=3; settings: HEK293, read-out: % inhibition
In short: as §1

NLK = NLK (Homo sapiens, UniProt Q9UBE8); test: cell-based; design: NanoBRET live-cell target engagement; % occupancy from displacement of tracer K10 on NanoLuc-kinase fusions, mean n=3; settings: HEK293, read-out: % inhibition
In short: as §1

PRKCE = PRKCE (Homo sapiens, UniProt Q02156); test: cell-based; design: NanoBRET live-cell target engagement; % occupancy from displacement of tracer K10 on NanoLuc-kinase fusions, mean n=3; settings: HEK293, read-out: % inhibition
In short: as §1

SGK1 = SGK1 (Homo sapiens, UniProt O00141); test: cell-based; design: NanoBRET live-cell target engagement; % occupancy from displacement of tracer K10 on NanoLuc-kinase fusions, mean n=3; settings: HEK293, read-out: % inhibition
In short: as §1

TBK1 = TBK1 (Homo sapiens, UniProt Q9UHD2); test: cell-based; design: NanoBRET live-cell target engagement; % occupancy from displacement of tracer K10 on NanoLuc-kinase fusions, mean n=3; settings: HEK293, read-out: % inhibition
In short: as §1

T5 sequence (Q15375 28-998): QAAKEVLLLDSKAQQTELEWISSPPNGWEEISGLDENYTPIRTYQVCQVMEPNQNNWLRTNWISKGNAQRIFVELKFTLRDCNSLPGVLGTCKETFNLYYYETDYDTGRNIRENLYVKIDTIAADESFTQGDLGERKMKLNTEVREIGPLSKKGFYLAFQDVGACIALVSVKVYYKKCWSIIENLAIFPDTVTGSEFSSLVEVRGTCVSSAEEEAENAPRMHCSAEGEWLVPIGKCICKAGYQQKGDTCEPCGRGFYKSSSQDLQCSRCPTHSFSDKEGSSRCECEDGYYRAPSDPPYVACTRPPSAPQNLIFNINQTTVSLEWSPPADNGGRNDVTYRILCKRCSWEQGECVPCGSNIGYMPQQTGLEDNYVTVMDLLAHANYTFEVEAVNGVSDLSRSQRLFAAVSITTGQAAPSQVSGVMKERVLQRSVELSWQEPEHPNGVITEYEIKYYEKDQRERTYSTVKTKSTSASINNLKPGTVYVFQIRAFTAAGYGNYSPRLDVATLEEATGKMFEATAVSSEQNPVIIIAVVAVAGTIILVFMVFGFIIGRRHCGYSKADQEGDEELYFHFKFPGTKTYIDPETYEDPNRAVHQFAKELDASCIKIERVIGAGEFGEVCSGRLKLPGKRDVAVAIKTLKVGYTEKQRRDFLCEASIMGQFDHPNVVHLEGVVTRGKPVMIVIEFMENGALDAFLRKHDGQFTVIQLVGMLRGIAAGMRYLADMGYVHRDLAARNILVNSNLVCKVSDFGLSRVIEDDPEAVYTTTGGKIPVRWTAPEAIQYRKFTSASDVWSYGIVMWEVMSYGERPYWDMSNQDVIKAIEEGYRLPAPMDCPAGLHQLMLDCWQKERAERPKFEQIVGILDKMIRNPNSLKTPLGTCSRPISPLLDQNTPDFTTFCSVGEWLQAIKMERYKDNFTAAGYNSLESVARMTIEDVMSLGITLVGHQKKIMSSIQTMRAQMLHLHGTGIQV
Chain of PRKCE (Q02156 whole entry, the tested form may be a part): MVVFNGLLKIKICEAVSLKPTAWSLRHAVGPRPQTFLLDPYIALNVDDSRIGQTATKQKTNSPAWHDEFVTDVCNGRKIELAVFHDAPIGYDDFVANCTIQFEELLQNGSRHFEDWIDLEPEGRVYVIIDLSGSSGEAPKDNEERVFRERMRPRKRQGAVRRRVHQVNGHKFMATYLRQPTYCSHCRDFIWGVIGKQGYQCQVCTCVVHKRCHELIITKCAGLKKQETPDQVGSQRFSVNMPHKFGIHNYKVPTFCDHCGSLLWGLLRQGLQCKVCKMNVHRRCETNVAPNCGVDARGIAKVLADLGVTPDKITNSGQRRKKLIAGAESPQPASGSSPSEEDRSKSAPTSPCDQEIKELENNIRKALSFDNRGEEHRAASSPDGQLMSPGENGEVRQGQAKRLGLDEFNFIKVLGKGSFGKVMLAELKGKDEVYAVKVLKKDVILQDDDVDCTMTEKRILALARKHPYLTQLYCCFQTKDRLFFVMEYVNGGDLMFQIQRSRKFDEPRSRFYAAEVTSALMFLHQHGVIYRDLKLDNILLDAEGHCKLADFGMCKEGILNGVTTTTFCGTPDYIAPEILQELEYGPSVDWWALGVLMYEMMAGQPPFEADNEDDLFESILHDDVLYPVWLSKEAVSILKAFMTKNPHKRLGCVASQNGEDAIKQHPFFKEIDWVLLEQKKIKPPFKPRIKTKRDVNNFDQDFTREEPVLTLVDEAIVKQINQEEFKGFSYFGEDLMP
Chain of HIPK3 (Q9H422 whole entry, the tested form may be a part): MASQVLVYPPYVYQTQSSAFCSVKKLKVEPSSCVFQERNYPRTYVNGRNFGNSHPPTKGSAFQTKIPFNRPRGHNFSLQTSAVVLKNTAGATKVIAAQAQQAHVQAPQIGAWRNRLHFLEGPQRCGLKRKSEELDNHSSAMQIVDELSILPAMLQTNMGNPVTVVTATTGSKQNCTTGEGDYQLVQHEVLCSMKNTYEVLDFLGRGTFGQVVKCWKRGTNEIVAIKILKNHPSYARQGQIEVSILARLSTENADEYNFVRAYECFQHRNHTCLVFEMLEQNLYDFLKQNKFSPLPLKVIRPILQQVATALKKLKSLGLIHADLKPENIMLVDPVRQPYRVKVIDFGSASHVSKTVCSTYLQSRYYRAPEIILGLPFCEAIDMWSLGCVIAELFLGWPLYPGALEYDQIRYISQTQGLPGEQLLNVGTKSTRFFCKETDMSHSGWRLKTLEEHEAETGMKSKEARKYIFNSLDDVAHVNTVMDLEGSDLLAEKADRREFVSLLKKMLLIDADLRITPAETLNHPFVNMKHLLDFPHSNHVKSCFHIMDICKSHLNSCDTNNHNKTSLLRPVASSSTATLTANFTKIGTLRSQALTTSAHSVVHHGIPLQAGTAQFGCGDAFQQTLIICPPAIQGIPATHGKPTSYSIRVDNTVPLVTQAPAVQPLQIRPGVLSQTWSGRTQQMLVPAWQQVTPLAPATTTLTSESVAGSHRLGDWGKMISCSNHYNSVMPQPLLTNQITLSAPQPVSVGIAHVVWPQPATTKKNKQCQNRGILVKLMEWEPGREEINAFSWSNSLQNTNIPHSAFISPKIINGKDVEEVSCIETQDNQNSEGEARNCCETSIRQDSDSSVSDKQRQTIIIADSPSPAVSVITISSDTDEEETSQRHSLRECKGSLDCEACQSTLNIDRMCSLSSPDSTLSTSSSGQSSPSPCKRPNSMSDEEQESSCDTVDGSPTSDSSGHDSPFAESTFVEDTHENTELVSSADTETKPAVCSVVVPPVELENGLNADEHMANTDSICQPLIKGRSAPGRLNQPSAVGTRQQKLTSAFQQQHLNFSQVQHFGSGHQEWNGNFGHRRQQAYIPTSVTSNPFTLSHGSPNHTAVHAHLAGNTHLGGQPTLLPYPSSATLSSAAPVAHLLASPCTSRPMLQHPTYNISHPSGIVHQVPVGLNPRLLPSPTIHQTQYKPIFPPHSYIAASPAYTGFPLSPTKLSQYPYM
T1 sequence (Q9UQB9 whole entry, the tested form may be a part): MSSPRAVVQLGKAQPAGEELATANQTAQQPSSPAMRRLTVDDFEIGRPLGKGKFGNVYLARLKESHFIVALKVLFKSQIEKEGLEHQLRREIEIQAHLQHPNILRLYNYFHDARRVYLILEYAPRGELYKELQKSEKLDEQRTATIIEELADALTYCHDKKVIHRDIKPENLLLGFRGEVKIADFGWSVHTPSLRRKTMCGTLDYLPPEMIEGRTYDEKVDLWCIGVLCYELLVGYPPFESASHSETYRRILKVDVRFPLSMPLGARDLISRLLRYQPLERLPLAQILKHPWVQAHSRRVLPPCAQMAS
Chain of CDK17 (Q00537 whole entry, the tested form may be a part): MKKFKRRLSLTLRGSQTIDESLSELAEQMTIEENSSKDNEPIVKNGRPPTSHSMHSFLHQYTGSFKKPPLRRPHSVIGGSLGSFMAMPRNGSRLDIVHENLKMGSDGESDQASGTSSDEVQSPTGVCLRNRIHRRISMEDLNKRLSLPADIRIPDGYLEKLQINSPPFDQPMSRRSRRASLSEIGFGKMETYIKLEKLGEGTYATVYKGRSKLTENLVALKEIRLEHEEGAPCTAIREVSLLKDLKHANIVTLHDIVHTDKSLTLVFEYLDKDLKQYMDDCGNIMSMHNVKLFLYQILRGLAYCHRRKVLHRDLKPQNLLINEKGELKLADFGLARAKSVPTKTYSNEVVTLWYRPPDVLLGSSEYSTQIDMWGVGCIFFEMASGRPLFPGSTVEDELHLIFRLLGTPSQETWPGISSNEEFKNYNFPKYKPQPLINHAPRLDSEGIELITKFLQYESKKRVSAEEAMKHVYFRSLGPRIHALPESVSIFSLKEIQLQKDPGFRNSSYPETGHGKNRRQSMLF
T3 sequence (Q9UF33 23-1036): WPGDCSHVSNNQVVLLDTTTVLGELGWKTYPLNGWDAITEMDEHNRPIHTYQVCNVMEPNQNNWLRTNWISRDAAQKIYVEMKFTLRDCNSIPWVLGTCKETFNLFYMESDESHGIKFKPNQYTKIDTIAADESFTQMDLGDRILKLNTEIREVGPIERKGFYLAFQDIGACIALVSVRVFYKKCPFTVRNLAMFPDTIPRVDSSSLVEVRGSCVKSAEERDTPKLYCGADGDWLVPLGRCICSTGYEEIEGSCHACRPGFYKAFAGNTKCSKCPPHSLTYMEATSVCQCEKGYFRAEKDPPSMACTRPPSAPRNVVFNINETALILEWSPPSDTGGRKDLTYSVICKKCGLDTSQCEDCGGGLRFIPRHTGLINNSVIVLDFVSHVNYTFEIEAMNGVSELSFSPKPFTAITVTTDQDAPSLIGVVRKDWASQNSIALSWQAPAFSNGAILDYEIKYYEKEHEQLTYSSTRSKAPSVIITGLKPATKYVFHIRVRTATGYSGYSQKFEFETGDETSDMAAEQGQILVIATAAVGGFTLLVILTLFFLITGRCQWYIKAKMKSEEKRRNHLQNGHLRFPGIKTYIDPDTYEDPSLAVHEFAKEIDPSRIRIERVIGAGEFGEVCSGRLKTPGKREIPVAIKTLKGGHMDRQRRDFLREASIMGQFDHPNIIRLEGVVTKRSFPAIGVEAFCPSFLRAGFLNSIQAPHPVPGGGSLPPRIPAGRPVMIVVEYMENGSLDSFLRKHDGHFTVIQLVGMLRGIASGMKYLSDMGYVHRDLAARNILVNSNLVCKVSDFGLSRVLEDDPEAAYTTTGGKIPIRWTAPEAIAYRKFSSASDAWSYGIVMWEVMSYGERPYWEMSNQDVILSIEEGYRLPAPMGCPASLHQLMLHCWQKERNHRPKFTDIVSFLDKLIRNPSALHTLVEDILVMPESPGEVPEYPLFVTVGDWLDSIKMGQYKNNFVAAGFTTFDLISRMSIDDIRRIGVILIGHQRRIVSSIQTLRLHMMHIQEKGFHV

Question: With `C[C@@H](Oc1cc(-c2cnn(C3CCNCC3)c2)cnc1N)c1c(Cl)ccc(F)c1Cl` [crizotinib] as the compound, how does the “Crizotinib % occupancy, 1 uM” value (AURKC) read?
Answer: The value was 48 ± 4.2%.

Question: And the “Crizotinib % occupancy, 1 uM” value (EPHA4)?
Answer: Its value is 53 ± 4.4%.

Question: What about the “Crizotinib % occupancy, 1 uM” value (EPHA6) of the same compound?
Answer: The value was 64 ± 5.1%.

Question: What about the “Crizotinib % occupancy, 1 uM” value (NTRK2) of the same compound?
Answer: The value was 85 ± 2.3%.

Question: What about the “Crizotinib % occupancy, 1 uM” value (EPHA7) of the same compound?
Answer: The value was 38 ± 2.4%.

Question: And the inhibition at 1 µM (CDK17)?
Answer: Its inhibition at 1 µM is 3%.

Question: And the inhibition at 1 µM (HIPK2)?
Answer: The inhibition at 1 µM was 5%.

Question: What about the inhibition at 1 µM (HIPK3) of the same compound?
Answer: Its inhibition at 1 µM is -4%.

Question: And the inhibition at 1 µM (IKBKE)?
Answer: Its inhibition at 1 µM is 21%.

Question: And the inhibition at 1 µM (IRAK4)?
Answer: Its inhibition at 1 µM is 6%.

Question: And the inhibition at 1 µM (MAPK4)?
Answer: The inhibition at 1 µM was -12%.

Question: What about the inhibition at 1 µM (MYLK3) of the same compound?
Answer: Its inhibition at 1 µM is -8%.

Question: And the inhibition at 1 µM (NEK4)?
Answer: Its inhibition at 1 µM is -12%.

Question: And the inhibition at 1 µM (NEK9)?
Answer: Its inhibition at 1 µM is 1%.

Question: And the inhibition at 1 µM (NLK)?
Answer: Its inhibition at 1 µM is -1%.

Question: What about the inhibition at 1 µM (PRKCE) of the same compound?
Answer: Its inhibition at 1 µM is -6%.

Question: And the inhibition at 1 µM (SGK1)?
Answer: Its inhibition at 1 µM is -1%.

Question: What about the inhibition at 1 µM (TBK1) of the same compound?
Answer: The inhibition at 1 µM was -7%.
